Assay results from patent publication US20210267872A1, “Delivery Of Cosmetic Agents, Compositions And Use Thereof” (ELC Management LLC, priority 2020, published 2021).

Columns and labels:
MatTek 300 skin = experiment: Skin penetration study (Franz Cell) using MatTek skin; format: in vitro ADME; conditions: for enhancement of penetration of AA2G over control: p value greater than 0.05
Method: In a 6-well plate, MatTek 300 skin (a skin modeling constructed by live cells, obtained from MatTek) was placed in well with 2.00 mL of incubation medium (also provide by MatTek). To the top of the skin, 400 ul of the sample was loaded. The skin was then incubated at 37° C. At 3 hours and 6 hours, the incubation medium was collected, and another 2.00 mL of medium was added into the well. The skin was then incubated until 24 hours. Finally, the medium was collected at 24 hours' time point. The collected mediums were filtered through a 0.45 um PTFE syringe filter into HPLC vials. The samples were then submitted to the UPLC study.
Waters ACQUITY H UPLC was used to analyze the collected samples from the penetration study (Franz Cell study).

Skin PAMPA study = format: in vitro ADME
Method: In vitro delivery of active ingredients in a formulation was evaluated using a skin PAMPA study. Active ingredients and pulverized thin fibers were added to the formulation and tested for permeation using PAMPA SC membrane for polar compounds. The following samples were prepared. Formulations are provided in Table 3 in percentages. • Formula 1 as shown in Table 3. • Formula 2: Formula 1 and 1% of microcrystalline cellulose (9 μm). • Formula 3: Formula 1 and the maximum amount of 1% dispersion (cellulose acetate fibers in water). • Formula 4: Formula 1 and 1% of microcrystalline cellulose (9 μm) and the maximum amount of 1% dispersion (cellulose acetate fibers in water).

Row | Compound | percentage % penetration of caffeine compared with AA2G (MatTek 300 skin) | penetration of caffeine in the presence of cellulose acetate chopped fibers (summary) (MatTek 300 skin; PAMPA) | enhancement of penetration of caffeine by addition of chopped fiber (MatTek 300 skin; human, 6 h) [%] | permeation of caffeine in the presence of chopped fibers compared to the control, FIG. 4B (Skin PAMPA study; composition comprising chopped fibers) | permeating amount of caffeine, FIG. 4A (Skin PAMPA study; six hours, cellulose acetate nanofiber) | enhancement of penetration of AA2G over control (MatTek 300 skin; six hours, formula containing cellulose acetate chopped fibers vs control without fiber) [%] | enhancement of penetration of AA2G over control (MatTek 300 skin; three hours, formula containing cellulose acetate chopped fibers vs control without fiber) [%] | enhancement of penetration of AA2G over control (difference) (MatTek 300 skin; twenty-four hours, formula containing cellulose acetate chopped fibers vs control without fiber) | delivery/penetration of AA2G into the skin in the presence of cellulose acetate chopped fibers (MatTek 300 skin; vs formulation without fiber, initial 6 hours after loading) | permeated amount of AA2G, FIG. 2B (Skin PAMPA study; span over all formulas shown) [μg/cm2]
1 | Cn1c(=O)c2c(ncn2C)n(C)c1=O [caffeine] | greater than that of AA2G | slightly enhanced | < 10 | doubling | slightly increased | – | – | – | – | –
2 | O=C1O[C@H]([C@@H](O)CO)C(O)=C1O[C@H]1O[C@H](CO)[C@@H](O)[C@H](O)[C@H]1O [AA2G, ascorbic acid 2-glucoside] | – | – | – | – | – | 30 | 33 | less than 10% | enhanced | 0 to 300
